Measured values taken from patent US6583180B2, “Glucocorticoid receptor modulators” (Abbott Laboratories, priority 2001, dated 2003).

Assays:
[1] = biological target: T1, Human glucocorticoid receptors (Homo sapiens, UniProt P04150); experiment: Radioligand filter binding assay, displacement of 3[H]-dexamethasone from hGR; settings: read-out: GR Binding (% Inhibition at 1.7 μM)
T1 construct: made in house; host or cells: Sf9 insect cells, recombinant baculovirus (BAC-TO-BAC)
T1 sequence (P04150 1-777): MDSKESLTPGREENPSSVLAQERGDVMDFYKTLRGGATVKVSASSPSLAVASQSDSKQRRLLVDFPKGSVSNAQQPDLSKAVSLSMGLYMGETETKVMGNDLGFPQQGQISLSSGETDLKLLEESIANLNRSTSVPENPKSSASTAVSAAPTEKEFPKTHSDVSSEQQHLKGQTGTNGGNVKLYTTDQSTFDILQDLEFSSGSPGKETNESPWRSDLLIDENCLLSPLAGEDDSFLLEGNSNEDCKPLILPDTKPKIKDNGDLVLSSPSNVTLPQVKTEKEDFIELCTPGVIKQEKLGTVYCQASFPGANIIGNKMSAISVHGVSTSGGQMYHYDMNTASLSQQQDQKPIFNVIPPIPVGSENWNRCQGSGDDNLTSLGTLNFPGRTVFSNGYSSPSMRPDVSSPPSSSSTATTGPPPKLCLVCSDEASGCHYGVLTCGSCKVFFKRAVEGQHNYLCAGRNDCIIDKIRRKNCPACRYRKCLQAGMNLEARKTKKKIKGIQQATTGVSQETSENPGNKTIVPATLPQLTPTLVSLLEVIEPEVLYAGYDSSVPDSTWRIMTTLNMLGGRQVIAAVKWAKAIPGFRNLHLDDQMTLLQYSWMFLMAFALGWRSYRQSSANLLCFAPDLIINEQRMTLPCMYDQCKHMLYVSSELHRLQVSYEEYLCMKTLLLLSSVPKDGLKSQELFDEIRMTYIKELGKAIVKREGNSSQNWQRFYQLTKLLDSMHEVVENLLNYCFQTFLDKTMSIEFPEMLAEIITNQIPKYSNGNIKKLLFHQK
Outline: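 Recombinant hGR extract from baculovirus-infected Sf9 cells (final ~1 nM receptor) incubated with ³H-dexamethasone and test compound dilutions in duplicate, EDTA/phosphate pH 8 buffer with MTG, overnight (15-20 h) at +4° C. Bound label collected on PEI-treated GF/B filters and scintillation-counted; IC50 from four-parameter fit of corrected cpm.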

[2] = biological target: T2, progesterone receptor (PR) (Homo sapiens, UniProt P06401); experiment: Radioligand binding assay for progesterone receptor (similar protocol);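 note: radioligand binding measured with cytosol preparations containing the human progesterone receptor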
T2 sequence (P06401 1-933): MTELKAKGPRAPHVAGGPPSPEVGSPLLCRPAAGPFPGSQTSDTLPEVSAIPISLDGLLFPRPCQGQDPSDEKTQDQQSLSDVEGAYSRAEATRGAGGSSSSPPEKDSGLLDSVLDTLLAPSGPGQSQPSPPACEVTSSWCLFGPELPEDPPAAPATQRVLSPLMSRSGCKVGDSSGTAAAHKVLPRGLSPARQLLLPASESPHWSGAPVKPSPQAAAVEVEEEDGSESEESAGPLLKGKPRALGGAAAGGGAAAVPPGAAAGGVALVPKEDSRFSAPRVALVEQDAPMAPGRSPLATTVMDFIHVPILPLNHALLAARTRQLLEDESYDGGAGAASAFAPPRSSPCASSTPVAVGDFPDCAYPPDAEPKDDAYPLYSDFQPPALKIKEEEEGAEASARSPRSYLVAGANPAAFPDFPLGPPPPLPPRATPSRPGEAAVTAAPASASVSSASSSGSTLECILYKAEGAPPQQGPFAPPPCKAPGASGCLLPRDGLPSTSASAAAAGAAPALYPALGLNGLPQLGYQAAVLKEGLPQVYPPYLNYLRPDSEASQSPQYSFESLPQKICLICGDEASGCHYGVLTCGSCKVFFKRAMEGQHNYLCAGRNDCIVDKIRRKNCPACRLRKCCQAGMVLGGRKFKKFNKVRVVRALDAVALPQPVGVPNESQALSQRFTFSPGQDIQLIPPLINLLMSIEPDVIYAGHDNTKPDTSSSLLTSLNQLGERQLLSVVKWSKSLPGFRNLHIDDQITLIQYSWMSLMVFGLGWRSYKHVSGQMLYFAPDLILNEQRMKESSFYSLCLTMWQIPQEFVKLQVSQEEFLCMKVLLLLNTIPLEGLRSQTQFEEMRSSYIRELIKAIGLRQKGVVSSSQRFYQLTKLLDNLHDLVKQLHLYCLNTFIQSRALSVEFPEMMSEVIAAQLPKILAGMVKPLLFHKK
Excerpt: Methods for Radiolipand Binding Studies with Human Glucocorticoid and Progesterone Receptor Cytosol

Compound | inhibition at 1.7 µM [1] [%] | IC50 [2] [nM]
Cc1c(NS(C)(=O)=O)cccc1N(Cc1ccccc1)Cc1ccc(F)cc1 [Example 9, N-{3-[benzyl(4-fluorobenzyl)amino]-2-methylphenyl}methanesulfonamide] | – | 4050
Cc1c(NS(C)(=O)=O)cccc1N(Cc1ccccc1)Cc1ccc(Br)cc1 [Example 13, N-{3-[benzyl(4-bromobenzyl)amino]-2-methylphenyl}methanesulfonamide] | – | 1860
Cc1c(NS(C)(=O)=O)cccc1N(Cc1ccccc1)Cc1ccc(Cl)cc1 [Example 29, N-{3-[benzyl(4-chlorobenzyl)amino]-2-methylphenyl}methanesulfonamide] | – | > 10000
Cc1c(NS(C)(=O)=O)cccc1N(Cc1ccc(OCC=Cc2ccccc2)cc1)Cc1ccc(F)cc1F [Example 33, N-{3-[(2,4-difluorobenzyl)(4-{[3-phenyl-2-propenyl]oxy}benzyl)amino]-2-methylphenyl}methanesulfonamide] | 92.7 | > 10000
Cc1c(NS(C)(=O)=O)cccc1N(Cc1ccccc1)Cc1ccc(OCC=CBr)cc1 [Example 35, N-{3-[benzyl(4-{[3-bromo-2-propenyl]oxy}benzyl)amino]-2-methylphenyl}methanesulfonamide] | – | > 10000
COc1ccc(NS(C)(=O)=O)cc1N(Cc1ccccc1Br)Cc1ccccc1Br [Example 36, N-{3-[bis(2-bromobenzyl)amino]-4-methoxyphenyl}methanesulfonamide] | 85.5 | 1200
Cc1c(NS(C)(=O)=O)cccc1N(Cc1ccc(Oc2ccc(CCC(=O)O)cc2)cc1)Cc1ccc(F)cc1F [Example 50, N-{3-[(4-(4-(2-carboxyethyl)phenoxy)benzyl)(2,4-difluorobenzyl)amino]-2-methylphenyl}methanesulfonamide] | – | 190
Cc1c(NS(C)(=O)=O)cccc1N(Cc1ccccc1)Cc1ccc(Oc2cccc(OCC(=O)O)c2)cc1 [Example 62, (3-{4-[(benzyl{2-methyl-3-[(methylsulfonyl)amino]phenyl}amino)methyl]phenoxy}phenoxy)acetic acid] | – | 246
Cc1c(NS(C)(=O)=O)cccc1N(Cc1ccc(Oc2ccc(CCC(=O)O)cc2)cc1)Cc1ccc(Cl)cc1F [Example 86, 3-(4-{4-[((4-chloro-2-fluorobenzyl){2-methyl-3-[(methylsulfonyl)amino]phenyl}amino)methyl]phenoxy}phenyl)propanoic acid] | – | 216
Cc1c(NS(C)(=O)=O)cccc1N(Cc1ccccc1)Cc1ccc(Oc2ccc(C(=O)O)cc2)cc1 [Example 96, 4-{4-[(benzyl{2-methyl-3-[(methylsulfonyl)amino]phenyl}amino)methyl]phenoxy}benzoic acid] | – | > 1000
COCOc1ccc(Oc2ccc(CN(Cc3ccccc3)c3cccc(NS(C)(=O)=O)c3C)cc2)cc1 [Example 97, N-[3-(benzyl{4-[4-(methoxymethoxy)phenoxy]benzyl}amino)-2-methylphenyl]methanesulfonamide] | – | 772
Cc1c(NS(C)(=O)=O)cccc1N(Cc1ccc(Br)cc1)Cc1ccc(Oc2ccccc2)cc1 [Example 103, N-{3-[(4-bromobenzyl)(4-phenoxybenzyl)amino]-2-methylphenyl}methanesulfonamide] | – | 78.3
Cc1c(NS(C)(=O)=O)cccc1N(Cc1ccccc1)Cc1ccc(Oc2ccc(CCCC(=O)NCC(=O)O)cc2)cc1 [Example 107, N-[4-(4-{4-[(benzyl{2-methyl-3-[(methylsulfonyl)amino]phenyl}amino)methyl]phenoxy}phenyl)butanoyl]glycine] | – | 743
Cc1c(NS(C)(=O)=O)cccc1N(Cc1ccccc1)Cc1ccc(Oc2cccc(O)c2)cc1 [Example 115, N-(3-{benzyl[4-(3-hydroxyphenoxy)benzyl]amino}-2-methylphenyl)methanesulfonamide] | – | 165
Cc1c(NS(C)(=O)=O)cccc1N(Cc1ccc(Oc2ccc(F)c(OCC(=O)O)c2)cc1)Cc1ccc(F)cc1F [Example 305, (5-(4-(((2,4-difluorobenzyl)(2-methyl-3-((methylsulfonyl)amino)phenyl)amino)methyl)phenoxy)-2-fluorophenoxy)acetic acid] | – | 8.9
Cc1c(NS(C)(=O)=O)cccc1N(Cc1ccc(Oc2ccc(Cl)c(O[C@H](C)C(=O)O)c2)cc1)Cc1ccc(F)cc1F [Example 321, (2R)-2-(2-chloro-5-(4-(((2,4-difluorobenzyl)(2-methyl-3-((methylsulfonyl)amino)phenyl)amino)methyl)phenoxy)phenoxy)propanoic acid] | 96.4 | –

More lines, now with the values ahead:

inhibition at 1.7 µM [1] [%] | IC50 [2] [nM] | Compound
88.1 | 600 | Cc1c(NS(C)(=O)=O)cccc1N(Cc1ccccc1Br)Cc1ccccc1Br [Example 1, N-{3-[bis(2-bromobenzyl)amino]-2-methylphenyl}methanesulfonamide]
– | 2310 | Cc1c(NS(C)(=O)=O)cccc1N(Cc1ccccc1)Cc1ccc(F)cc1F [Example 10, N-{3-[benzyl(2,4-difluorobenzyl)amino]-2-methylphenyl}methanesulfonamide]
84.2 | 430 | C=CCOc1ccc(CN(Cc2ccc(F)cc2F)c2cccc(NS(C)(=O)=O)c2C)cc1 [Example 20, N-{3-[[4-(allyloxy)benzyl](2,4-difluorobenzyl)amino]-2-methylphenyl}methanesulfonamide]
– | 1480 | COc1ccc(CN(Cc2ccc(F)cc2F)c2cccc(NS(C)(=O)=O)c2C)cc1 [Example 22, N-{3-[(2,4-difluorobenzyl)(4-methoxybenzyl)amino]-2-methylphenyl}methanesulfonamide]
92 | 920 | Cc1c(NS(C)(=O)=O)cccc1N(Cc1ccccc1F)Cc1ccc(F)cc1F [Example 23, N-{3-[(2,4-difluorobenzyl)(2-fluorobenzyl)amino]-2-methylphenyl}methanesulfonamide]
– | 2590 | Cc1c(NS(C)(=O)=O)cccc1N(Cc1ccc(F)cc1F)Cc1ccc(F)cc1F [Example 24, N-{3-[bis(2,4-difluorobenzyl)amino]-2-methylphenyl}methanesulfonamide]
87.5 | 1790 | Cc1c(NS(C)(=O)=O)cccc1N(Cc1ccc(F)cc1F)Cc1ccccc1C#N [Example 25, N-{3-[(2-cyanobenzyl)(2,4-difluorobenzyl)amino]-2-methylphenyl}methanesulfonamide]
– | 1730 | Cc1c(NS(C)(=O)=O)cccc1N(Cc1ccccc1)Cc1ccc(Cl)cc1Cl [Example 32, N-{3-[benzyl(2,4-dichlorobenzyl)amino]-2-methylphenyl}methanesulfonamide]
90 | > 10000 | Cc1c(NS(C)(=O)=O)cccc1N(Cc1ccc(OCc2ccccc2)cc1)Cc1ccc(F)cc1F [Example 34, N-{3-[[4-(benzyloxy)benzyl](2,4-difluorobenzyl)amino]-2-methylphenyl}methanesulfonamide]
– | 1300 | CSc1ccc(CN(Cc2ccc(Cl)cc2F)c2cccc(NS(C)(=O)=O)c2C)cc1 [Example 144, N-(3-{(4-chloro-2-fluorobenzyl)[4-(methylthio)benzyl]amino}-2-methylphenyl)methanesulfonamide]
– | 357 | Cc1c(NS(C)(=O)=O)cccc1N(Cc1ccccc1F)Cc1ccc(Cl)cc1F [Example 145, N-{3-[(4-chloro-2-fluorobenzyl)(2-fluorobenzyl)amino]-2-methylphenyl}methanesulfonamide]
